Test results as given in patent US8115031B2, “Anti-inflammatory quinic acid derivatives for oral administration” (priority 2007, dated 2012).
Read-outs that look alike come from different tables or passages of the source. Blank lines part the entries; values can stand above or below the molecule they belong to.

How the values were obtained:
[1] = levels of compound after oral (PO) or intravenous (IV) administration; type: in vivo; details: PO vs IV, FIG. 12
Description: FIG. 12 is a graph illustrating the levels of analog KZ-41 when provided orally (PO) or by intravenous administration (IV).
Quinic acids are, however, catabolized by enzymes produced by gut bacteria. In rats, less than 10% of an orally-administered dose of quinic acid is recovered. The inventors therefore set out to produce quinic acid derivatives that retain or improve the beneficial effects of quinic acid, while being effective for oral administration. […] The compounds they have synthesized are not catabolized by bacterial enzymes, but are water-soluble, stable at room temperature, and effective for producing anti-inflammatory effects. […] These properties make the compounds attractive options for therapeutic use as anti-inflammatory agents.

[2] = test system: Gluconobacter oxydans membrane fraction (quinate dehydrogenase); assay: degradation by bacterial enzymes (Gluconobacter oxydans membrane fraction); type: in vitro ADME
Protocol: FIG. 11 is a graph illustrating the results of an assay to compare stability of analog KZ-41 with that of quinic acid (QA) to degradation by bacterial enzymes. Percentage of drug remaining is shown on the Y-axis and the time exposed to the enzymes is shown on the X-axis. Results for quinic acid are indicated by the diamonds (♦) and results for KZ-41 are indicated by the squares (▪).
Experiments involving Gluconobacter oxydans were performed as described by Adachi et al. (Adachi, O., et al., (2003) Biosci. Biotechnol. Biochem. 67: 2124-2131). […]
Samples were evaporated to dryness at 30° C. and reconstituted with […] of 1:1 (v/v) mixture of 0.5% ammonia in water and acetonitrile. […] The spray needle voltage was set at 5,000 V, with the turbo gas temperature set at 400° C., and the declustering potential set at 60 V. For this study, samples were analyzed using a Q1 scan for product ion identification, a product ion scan for characterization of metabolites or enzymatic products and by using multiple-reaction monitoring (MRM) for quantitation of QA. Quantitation was performed using one set of MRM transitions: parent QA ions (MH^−/191)® selective daughter ions m/z 127. […] The peak areas, peak ratios, linear regression, assayed concentrations, and other quantitative analysis calculations were conducted Sciex Analyst 1.4 software. […]

[3] = test system: Gluconobacter oxydans membrane fraction (quinate dehydrogenase); details: three hours; previous results (Adachi et al. 2003); cited from earlier work
[4] = rats, oral; cited from earlier work
[5] = test system: leukocyte populations; details: doxorubicin-induced leukopenia, rat; cited from earlier work

- degradation by bacterial enzymes ([2]; enzymes produced by gut bacteria): not degraded
Molecule: CCCNC(=O)C1(O)CC(O)C(O)C(O)C1 (stereo not drawn) [KZ-41, 1,3,4,5-tetrahydroxy-cyclohexane-carboxylic acid propylamide]
- levels of compound, oral compared with intravenous (IV) administration [1]: available for absorption into the circulation

Molecule: O=C(O)[C@]1(O)C[C@@H](O)[C@@H](O)[C@H](O)C1 [quinic acid]
- degradation by bacterial enzymes [2]: degraded by enzymes produced by bacteria in the intestines
- depletion of QA by G. oxydans membrane fraction [3]: complete depletion
- orally-administered dose recovered [4]: less than 10%

B1: Neupogen: a granulocyte colony stimulator commonly used to treat chemotherapy-induced leukopenia (protein, chains of the INN, looked up)
chain: MTPLGPASSLPQSFLLKCLEQVRKIQGDGAALQEKLCATYKLCHPEELVLLGHSLGIPWAPLSSCPSQALQLAGCLSQLHSGLFLYQGLLQALEGISPELGPTLDTLQLDVADFATTIWQQMEELGMAPALQPTQGAMPAFASAFQRRAGGVLVASHLQSFLEVSYRVLRHLAQP
- effect on leukocyte populations [5]: increased only the neutrophil fraction
